# Data published in patent publication US10670605B2, “Cysteine reactive probes and uses thereof” (The Scripps Research Institute, priority 2015, dated 2020).
# Counter-ions that a name gives are not always drawn.
# Experiments:
# O00541_C272 = O00541_C272 (Homo sapiens, UniProt O00541); test: Competitive isoTOP-ABPP, cell lysates; assay type: binding; settings: 500 μm, in-vitro_ramos
# [1] = biological target: cysteines in MDA-MB-231 and Ramos cells (Homo sapiens, UniProt P53992); test: Competitive isoTOP-ABPP in situ (fragment-treated cells); assay type: cell-based; settings: 200 μM, insitu, 231
# [2] = biological target: cysteines in MDA-MB-231 and Ramos cells (Homo sapiens, UniProt Q9UHQ1); test: as above; assay type: cell-based; settings: 200 μM, insitu, ramos
# NIT1 C165 (Q86X76) = NIT1 C165 (Q86X76) (Homo sapiens, UniProt Q86X76); test: Competitive isoTOP-ABPP in situ; assay type: cell-based; settings: fragment 4 at 100 μM, MDA-MB-231 cells
# CLTC C870 (Q00610) = CLTC C870 (Q00610) (Homo sapiens, UniProt Q00610); test: Competitive isoTOP-ABPP in situ; assay type: cell-based; settings: fragment 4 at 100 μM, MDA-MB-231 cells
# CDKN3 C39 (Q16667) = CDKN3 C39 (Q16667) (Homo sapiens, UniProt Q16667); test: Competitive isoTOP-ABPP in situ; assay type: cell-based; settings: fragment 4 at 100 μM, MDA-MB-231 cells
# [3] = biological target: cysteines in MDA-MB-231 and Ramos cells (Homo sapiens, UniProt Q9P0K7); test: Competitive isoTOP-ABPP in situ (fragment-treated cells); assay type: cell-based; settings: 100 μM in situ 231
# THAP11 C48 (Q96EK4) = THAP11 C48 (Q96EK4) (Homo sapiens, UniProt Q96EK4); test: Competitive isoTOP-ABPP in situ; assay type: cell-based; settings: fragment 2 at 200 μM, MDA-MB-231 cells
# [4] = tested on: intracellular GSH in primary human T cells; test: Quantification of cellular glutathione (GSH) levels; assay type: cell-based; settings: DMF 50 μM 2 h; BSO 2.5 mM 4 h
# Experimental: Primary human T cells (2.5 million cells/mL, 20 mL per condition) were treated as indicated, harvested by centrifugation (500 g, 8 min, 4° C.), and washed twice with PBS. To the cell pellet was added 75 μL of lysis buffer. […] Protein concentrations were adjusted to at least 5 mg/mL and the assay performed according to manufacturer's instructions (Sigma-Aldrich, CS 1020). Data represent mean±SE for two biological replicates.
# PKCθ-CD28 interaction = biological target: T1, PKCθ-CD28 interaction (Mus musculus, UniProt Q02111); test: PKCθ immunoprecipitation with CD28 and immunoblot; assay type: cell-based; settings: 50 μM, mouse T cells
# T1 construct: endogenous in cells; host or cells: peripheral CD4+ T cells from C57BL/6 mice
# Text: FIG. 32A-FIG. 32G exemplify DMF-sensitive C14/C17 residues in PKCθ are important for CD28 interactions and T cell activation. FIG. 32A illustrates representative MS1 profiles for DMF-sensitive (C14/C17) and -insensitive (C322) Cys residues in PKCθ. FIG. 32B exemplifies sequence conservation analysis of human and mouse PKCθ, human PKCδ, and human PKCε (SEQ ID NOS 865-868, respectively, in order of appearance). Shown in red are C14 and C17. FIG. 32C illustrates location of DMF-sensitive C14 and C17 residues in the C2 domain of PKCθ (PDB accession number 2ENJ). […] Immunoprecipitations (IPs) were performed in the cell lysates with anti-CD28 or control IgG antibodies and IPs blotted for CD28 or PKCθ. FIG. 32E illustrates Co-IP of WT PKCθ and the C14S/C17S (2CS) PKCθ mutant with CD28. PKCθ(−/−) T cells were reconstituted with empty vector (EV), WT PKCθ, or the 2CS PKCθ mutant. FIG. 32F and FIG. 32 G illustrate PKCθ(−/−) T cells reconstituted with WT or 2CS PKCθ were assayed for activation potential by measuring CD25 expression (FIG. 32F) and IL-2 (FIG. 32G). For FIG. 32E-FIG. 32G, PKCθ(−/−) T cell cultures were pre-activated with plate-coated anti-CD3+anti-CD28 for 24 h before retroviral transduction with empty vector, WT PKCθ, or the 2CS PKCθ mutant. […]
# [5] = biological target: cysteines in MDA-MB-231 and Ramos cells (Homo sapiens, UniProt Q8WUM4); test: Competitive isoTOP-ABPP in situ (fragment-treated cells); assay type: cell-based; settings: cysteine Q8WUM4_C90; fragment 200 μM, in situ, 231 (MDA-MB-231) cells
# [6] = biological target: cysteines in MDA-MB-231 and Ramos cells (Homo sapiens, UniProt Q13867); test: as above; assay type: cell-based; settings: 200 μM, insitu, 231
# [7] = biological target: cysteines in MDA-MB-231 and Ramos cells (Homo sapiens, UniProt Q8IV53); test: as above; assay type: cell-based; settings: 200 μM, insitu, ramos
# [8] = biological target: cysteines in MDA-MB-231 and Ramos cells (Homo sapiens, UniProt Q5T1V6); test: as above; assay type: cell-based; settings: 200 μM, insitu, 231
# [9] = biological target: cysteines in MDA-MB-231 and Ramos cells (Homo sapiens, UniProt Q96IV0); test: as above; assay type: cell-based; settings: cysteine Q96IV0_C309; fragment 200 μM, in situ, ramos cells
# [10] = biological target: cysteines in MDA-MB-231 and Ramos cells (Homo sapiens, UniProt Q86UV5); test: as above; assay type: cell-based; settings: 200 μM, insitu, ramos
# Chain of O00541_C272 (O00541 whole entry, looked up, the tested form may be a part): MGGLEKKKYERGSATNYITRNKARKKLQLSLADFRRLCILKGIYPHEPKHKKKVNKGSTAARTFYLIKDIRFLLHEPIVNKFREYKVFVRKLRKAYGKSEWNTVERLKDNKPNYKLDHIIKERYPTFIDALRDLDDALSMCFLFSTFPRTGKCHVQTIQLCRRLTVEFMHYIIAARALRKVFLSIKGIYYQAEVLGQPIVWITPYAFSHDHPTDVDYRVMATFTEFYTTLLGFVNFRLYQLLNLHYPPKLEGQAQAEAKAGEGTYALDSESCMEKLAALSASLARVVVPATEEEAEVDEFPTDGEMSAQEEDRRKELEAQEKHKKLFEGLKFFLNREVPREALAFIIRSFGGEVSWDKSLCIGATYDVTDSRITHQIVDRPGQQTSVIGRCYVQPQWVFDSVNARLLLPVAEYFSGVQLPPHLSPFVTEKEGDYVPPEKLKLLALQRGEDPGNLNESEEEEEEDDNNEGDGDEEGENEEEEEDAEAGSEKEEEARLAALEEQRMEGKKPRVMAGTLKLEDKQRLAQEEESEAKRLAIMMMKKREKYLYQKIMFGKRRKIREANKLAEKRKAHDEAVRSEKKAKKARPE
# Chain of cysteines in MDA-MB-231 and Ramos cells (Homo sapiens, UniProt P53992) (P53992 whole entry, the tested form may be a part): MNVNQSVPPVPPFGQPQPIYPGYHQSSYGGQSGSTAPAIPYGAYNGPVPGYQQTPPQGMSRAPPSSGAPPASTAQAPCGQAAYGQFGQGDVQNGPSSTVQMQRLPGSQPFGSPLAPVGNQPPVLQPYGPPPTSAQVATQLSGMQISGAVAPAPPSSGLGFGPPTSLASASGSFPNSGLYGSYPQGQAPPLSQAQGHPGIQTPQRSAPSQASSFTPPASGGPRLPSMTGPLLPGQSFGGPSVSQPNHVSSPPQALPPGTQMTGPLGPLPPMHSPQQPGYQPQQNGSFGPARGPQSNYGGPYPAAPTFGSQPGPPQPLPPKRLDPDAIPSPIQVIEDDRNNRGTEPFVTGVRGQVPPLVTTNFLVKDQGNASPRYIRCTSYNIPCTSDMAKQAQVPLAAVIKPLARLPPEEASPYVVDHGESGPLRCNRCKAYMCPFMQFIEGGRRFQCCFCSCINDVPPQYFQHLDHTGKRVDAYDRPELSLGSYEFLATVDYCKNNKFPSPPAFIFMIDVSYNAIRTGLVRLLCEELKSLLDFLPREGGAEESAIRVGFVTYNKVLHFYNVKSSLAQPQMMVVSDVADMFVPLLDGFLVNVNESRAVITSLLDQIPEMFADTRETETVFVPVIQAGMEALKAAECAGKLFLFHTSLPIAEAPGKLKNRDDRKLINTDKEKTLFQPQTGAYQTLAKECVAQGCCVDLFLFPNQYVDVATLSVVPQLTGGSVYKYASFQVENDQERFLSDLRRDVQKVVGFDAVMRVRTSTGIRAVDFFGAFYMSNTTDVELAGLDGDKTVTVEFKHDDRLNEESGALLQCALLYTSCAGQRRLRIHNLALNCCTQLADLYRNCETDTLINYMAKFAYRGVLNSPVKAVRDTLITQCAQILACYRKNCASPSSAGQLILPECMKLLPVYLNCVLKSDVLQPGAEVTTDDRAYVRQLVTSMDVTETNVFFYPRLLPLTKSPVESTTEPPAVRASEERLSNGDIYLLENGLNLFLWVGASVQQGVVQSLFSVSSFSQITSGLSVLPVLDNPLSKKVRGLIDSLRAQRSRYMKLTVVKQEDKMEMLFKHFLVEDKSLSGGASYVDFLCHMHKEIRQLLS
# Chain of cysteines in MDA-MB-231 and Ramos cells (Homo sapiens, UniProt Q5T1V6) (Q5T1V6 whole entry, the tested form may be a part): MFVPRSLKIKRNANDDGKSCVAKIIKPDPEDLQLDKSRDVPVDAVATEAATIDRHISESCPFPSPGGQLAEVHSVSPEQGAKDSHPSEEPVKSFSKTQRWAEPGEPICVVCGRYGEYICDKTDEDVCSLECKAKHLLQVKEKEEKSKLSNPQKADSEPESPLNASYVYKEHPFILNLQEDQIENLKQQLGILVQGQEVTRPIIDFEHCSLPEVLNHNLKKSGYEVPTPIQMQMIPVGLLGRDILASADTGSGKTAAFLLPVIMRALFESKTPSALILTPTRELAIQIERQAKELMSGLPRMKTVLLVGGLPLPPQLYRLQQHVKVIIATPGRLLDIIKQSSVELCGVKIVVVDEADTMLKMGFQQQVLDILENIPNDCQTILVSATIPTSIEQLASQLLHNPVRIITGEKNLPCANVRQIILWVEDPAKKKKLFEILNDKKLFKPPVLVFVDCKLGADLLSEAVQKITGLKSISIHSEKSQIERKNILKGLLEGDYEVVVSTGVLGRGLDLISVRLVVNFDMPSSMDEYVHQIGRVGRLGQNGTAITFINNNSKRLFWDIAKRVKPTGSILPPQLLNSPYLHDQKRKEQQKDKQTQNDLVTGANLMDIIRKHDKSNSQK
# Chain of cysteines in MDA-MB-231 and Ramos cells (Homo sapiens, UniProt Q9UHQ1) (Q9UHQ1 whole entry, the tested form may be a part): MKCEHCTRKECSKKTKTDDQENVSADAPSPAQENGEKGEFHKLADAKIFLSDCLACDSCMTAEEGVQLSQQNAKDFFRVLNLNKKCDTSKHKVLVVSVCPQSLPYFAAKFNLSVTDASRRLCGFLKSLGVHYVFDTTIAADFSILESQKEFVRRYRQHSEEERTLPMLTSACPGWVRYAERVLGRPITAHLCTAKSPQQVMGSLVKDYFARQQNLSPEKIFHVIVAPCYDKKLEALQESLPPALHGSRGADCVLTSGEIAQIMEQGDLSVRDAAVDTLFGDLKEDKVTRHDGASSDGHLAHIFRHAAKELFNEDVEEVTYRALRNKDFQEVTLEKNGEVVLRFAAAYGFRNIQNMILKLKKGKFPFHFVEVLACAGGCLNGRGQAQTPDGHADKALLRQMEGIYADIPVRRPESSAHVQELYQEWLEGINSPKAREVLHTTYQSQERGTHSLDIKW
# T1 sequence (Q02111 whole entry): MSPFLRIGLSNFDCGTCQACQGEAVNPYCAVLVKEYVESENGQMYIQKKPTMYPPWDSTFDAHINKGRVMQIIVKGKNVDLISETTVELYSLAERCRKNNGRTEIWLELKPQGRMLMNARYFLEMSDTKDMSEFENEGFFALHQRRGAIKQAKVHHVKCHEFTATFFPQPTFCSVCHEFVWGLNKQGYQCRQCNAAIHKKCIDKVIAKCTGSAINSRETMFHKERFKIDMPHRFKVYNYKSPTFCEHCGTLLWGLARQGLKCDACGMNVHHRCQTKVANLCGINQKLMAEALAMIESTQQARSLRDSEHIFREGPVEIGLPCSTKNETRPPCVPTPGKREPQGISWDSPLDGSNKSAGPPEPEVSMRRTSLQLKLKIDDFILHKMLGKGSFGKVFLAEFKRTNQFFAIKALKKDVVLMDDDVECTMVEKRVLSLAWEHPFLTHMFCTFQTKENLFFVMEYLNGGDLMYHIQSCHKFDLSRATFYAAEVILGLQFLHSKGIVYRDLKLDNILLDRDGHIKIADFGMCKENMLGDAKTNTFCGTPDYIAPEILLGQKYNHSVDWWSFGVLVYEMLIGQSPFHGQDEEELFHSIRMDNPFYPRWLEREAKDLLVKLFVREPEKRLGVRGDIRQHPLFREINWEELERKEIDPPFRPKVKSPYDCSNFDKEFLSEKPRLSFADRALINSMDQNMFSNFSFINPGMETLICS
# Chain of THAP11 C48 (Q96EK4) (Q96EK4 whole entry, the tested form may be a part): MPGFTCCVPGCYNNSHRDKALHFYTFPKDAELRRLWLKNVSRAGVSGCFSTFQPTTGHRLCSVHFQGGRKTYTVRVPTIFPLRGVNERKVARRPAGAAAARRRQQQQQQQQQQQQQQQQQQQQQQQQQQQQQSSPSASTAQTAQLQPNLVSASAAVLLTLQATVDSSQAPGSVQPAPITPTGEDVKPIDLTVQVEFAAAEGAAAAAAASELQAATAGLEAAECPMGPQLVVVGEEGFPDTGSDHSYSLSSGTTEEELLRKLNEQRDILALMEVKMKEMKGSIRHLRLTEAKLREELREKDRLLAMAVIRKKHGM
# Chain of cysteines in MDA-MB-231 and Ramos cells (Homo sapiens, UniProt Q8WUM4) (Q8WUM4 whole entry, the tested form may be a part): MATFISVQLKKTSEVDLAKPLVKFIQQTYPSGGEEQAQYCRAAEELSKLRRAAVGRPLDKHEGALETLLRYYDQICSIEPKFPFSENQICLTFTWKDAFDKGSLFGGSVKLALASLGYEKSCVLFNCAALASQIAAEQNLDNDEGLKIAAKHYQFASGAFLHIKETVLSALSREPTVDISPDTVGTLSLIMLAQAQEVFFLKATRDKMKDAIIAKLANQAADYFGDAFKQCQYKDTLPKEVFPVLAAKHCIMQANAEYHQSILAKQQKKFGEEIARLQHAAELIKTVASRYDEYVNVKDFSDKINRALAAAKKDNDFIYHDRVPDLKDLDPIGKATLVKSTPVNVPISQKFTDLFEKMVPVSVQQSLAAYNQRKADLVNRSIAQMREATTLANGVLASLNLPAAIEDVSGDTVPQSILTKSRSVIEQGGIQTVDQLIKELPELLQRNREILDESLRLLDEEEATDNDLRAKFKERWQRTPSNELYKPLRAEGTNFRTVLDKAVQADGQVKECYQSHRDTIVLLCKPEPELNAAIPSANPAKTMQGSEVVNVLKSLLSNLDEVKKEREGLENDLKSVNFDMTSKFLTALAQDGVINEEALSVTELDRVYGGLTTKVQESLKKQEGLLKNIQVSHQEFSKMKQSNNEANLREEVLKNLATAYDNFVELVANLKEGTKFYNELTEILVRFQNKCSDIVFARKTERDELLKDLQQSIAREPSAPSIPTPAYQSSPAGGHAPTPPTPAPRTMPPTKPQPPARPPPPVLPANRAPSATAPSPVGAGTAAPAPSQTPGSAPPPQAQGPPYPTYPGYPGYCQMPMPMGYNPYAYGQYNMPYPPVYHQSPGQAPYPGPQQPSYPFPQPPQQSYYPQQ
# Chain of CDKN3 C39 (Q16667) (Q16667 whole entry, the tested form may be a part): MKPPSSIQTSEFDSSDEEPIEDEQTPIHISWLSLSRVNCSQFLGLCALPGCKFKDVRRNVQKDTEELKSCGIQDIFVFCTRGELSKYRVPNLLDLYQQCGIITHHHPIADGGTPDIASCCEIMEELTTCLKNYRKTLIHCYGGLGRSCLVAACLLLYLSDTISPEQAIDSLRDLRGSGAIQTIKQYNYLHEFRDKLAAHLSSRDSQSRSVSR
smiles,measurement,setting,value
N#CC(=Cc1ccc(-c2ccccc2Cl)o1)C(N)=O [compound 42],"isoTOP-ABPP reactivity profile ratio, O00541_C272",O00541_C272,0.9
O=C(CCl)NCCc1c[nH]c2ccccc12 [compound 13],"isoTOP-ABPP ratio, cysteine P53992_C78",[1],0.7
same,"isoTOP-ABPP ratio, cysteine Q9UHQ1_C99",[2],20.0
COc1ccc(C2CC(c3cccs3)=NN2C(=O)CCl)cc1 (stereo not shown) [compound 4],isoTOP-ABPP reactivity profile (ratio) 4_100 μM_in-situ_231,NIT1 C165 (Q86X76),0.9
same,isoTOP-ABPP reactivity profile (ratio) 4_100 μM_in-situ_231,CLTC C870 (Q00610),2.1
same,isoTOP-ABPP reactivity profile (ratio) 4_100 μM_in-situ_231,CDKN3 C39 (Q16667),0.6
Cn1cc(S(=O)(=O)N2CCOCC2)cc1C(=O)NC(=O)CCl [compound 11],"isoTOP-ABPP ratio, cysteine Q9P0K7_C973",[3],0.8
COc1ccc2c(c1)CCCN2C(=O)CCl [compound 2],isoTOP-ABPP reactivity profile (ratio) 2_200 μM_in-situ_231,THAP11 C48 (Q96EK4),7.9
"COC(=O)/C=C/C(=O)OC [DMF, dimethyl fumarate]",cellular GSH content,[4],significant decrease
same,interaction between PKCθ and CD28,PKCθ-CD28 interaction,blocked
CC(C)CCOCCNC(=O)CCl [compound 27],reactivity profile of liganded cysteine Q8WUM4_C90 with fragment electrophile (isoTOP-ABPP ratio),[5],0.6
O=C(CCl)N1CCN(S(=O)(=O)c2ccccc2F)CC1 [compound 10],"isoTOP-ABPP ratio, cysteine Q13867_C73",[6],4.2
same,"isoTOP-ABPP ratio, cysteine Q8IV53_C174",[7],5.0
same,"isoTOP-ABPP ratio, cysteine Q5T1V6_C414",[8],11.3
O=C(CCl)N1CCN(CC(=O)N2CCOCC2)CC1 [compound 29],reactivity profile of liganded cysteine Q96IV0_C309 with fragment electrophile (isoTOP-ABPP ratio),[9],3.0
C=CC(=O)N(Cc1cccnc1)c1cc(C(F)(F)F)cc(C(F)(F)F)c1 [compound 31],"isoTOP-ABPP ratio, Q86UV5_C39",[10],1.3
